Like-named read-outs stand apart in the source and are kept apart here.
Assays:
(UniProt Q0SC92) = experiment: biochemical; assay type: biochemical, Rhodococcus sp. (strain RHA1), isolate ro03041; conditions: read-out: pI50 (converted)
[1] = system: Rhodococcus HPPD SEQ ID No. 5 (FMP22e); experiment: biochemical; assay type: biochemical, Rhodococcus sp. (strain RHA1), isolate ro03041
(UniProt Q0SF39) [2] = experiment: biochemical; assay type: biochemical, Rhodococcus sp. (strain RHA1), isolate ro02040; conditions: read-out: pI50 (converted)
[3] = system: Rhodococcus HPPD SEQ ID No. 19 (FMP23e); experiment: biochemical; assay type: biochemical, Rhodococcus sp. (strain RHA1), isolate ro02040
[4] = system: T1 tobacco plants carrying FMP22e; experiment: Response to bicyclopyrone, T1 tobacco classified by injury; assay type: in vivo, Nicotiana tabacum; conditions: 100 g AI/ha, 7 DAT; for Class I (number of plants): injury: 0-30%; for Class II (number of plants): injury: 31-100%
Description: (§1) Seeds of wild type tobacco plants and T1 tobacco plants carrying the gene from Rhodococcus sp. (strain RHA1), isolate ro03041 FMP22e coding for HPPD FMP22 or plants carrying the gene from Rhodococcus sp. (strain RHA1) isolate ro02040 FMP23e coding for HPPD FMP23 were sown on MS media (Murashige and Skoog […]) supplemented with […] kanamycin. After 4 weeks, rooted green plantlets were transferred to soil and grown for 3 weeks in the glasshouse as described above then sprayed with a mixture containing bicyclopyrone (100 g Al/ha), ammonium sulfate and methyl ester raps oil. The plants were classified in two categories based on the phenotype developed in response to the herbicide seven days after the treatment. […] In this case, only plants containing at least one T-DNA were exposed to the herbicidal treatment.

[5] = system: T1 tobacco plants carrying FMP23e; experiment: as above; assay type: in vivo, Nicotiana tabacum; conditions: 100 g AI/ha, 7 DAT, FMP23e line 188
Description: as §1

Wild type tobacco plants = experiment: as above; assay type: in vivo, Nicotiana tabacum; conditions: 100 g AI/ha, 7 DAT, line WT
Description: as §1

(UniProt Q0SF39) [6] = experiment: HPLC assay of HPPD in vitro kinetic properties; assay type: biochemical, Rhodococcus sp. (strain RHA1), isolate ro02040
[7] = system: Rhodococcus HPPD SEQ ID No. 19 (FMP23e); experiment: HPLC assay of HPPD in vitro kinetic properties; assay type: biochemical, Rhodococcus sp. (strain RHA1), isolate ro02040; conditions: substrate HPP, 10 to 400 μM; SEQ ID No. 19
[8] = target: T1, Arabidopsis thaliana HPPD SEQ ID No. 10 (Arabidopsis thaliana, UniProt P93836); experiment: HPLC assay of HPPD in vitro kinetic properties; conditions: substrate HPP, 10 to 400 μM; SEQ ID No. 10
T1 sequence (P93836 with tags, fused parts or gaps): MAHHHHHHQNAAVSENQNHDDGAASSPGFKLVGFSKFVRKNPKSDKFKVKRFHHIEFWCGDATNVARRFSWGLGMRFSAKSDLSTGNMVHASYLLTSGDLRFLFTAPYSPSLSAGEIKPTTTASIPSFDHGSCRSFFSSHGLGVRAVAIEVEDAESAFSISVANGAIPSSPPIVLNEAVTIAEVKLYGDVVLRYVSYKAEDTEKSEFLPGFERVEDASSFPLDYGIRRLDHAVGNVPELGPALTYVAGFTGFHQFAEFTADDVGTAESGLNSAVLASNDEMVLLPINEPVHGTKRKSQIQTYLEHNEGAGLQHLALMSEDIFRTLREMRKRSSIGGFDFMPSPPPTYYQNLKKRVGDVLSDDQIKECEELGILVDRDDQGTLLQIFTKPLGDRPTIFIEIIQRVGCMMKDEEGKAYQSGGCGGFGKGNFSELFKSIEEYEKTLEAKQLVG
Procedure: All assays were started by the addition of HPPD enzyme to the assay mixture and stopped at a series of times between 0 and 240 s by addition of 200 μl of the reaction mixture to reaction assay tubes containing 20 μl 10% perchloric acid. Precipitated protein was pelleted by a 5 minute centrifugation at 10,000 g. […] For Km and Vmax value determinations the initial rates of the HPPD reaction at different substrate concentrations were determined from plots of HGA formed versus time and fitted to the Michaelis-Menten equation for unireactant enzymes using the ID Business Solutions Ltd. (idbs.com) XLfit software suite.

[9] = system: tobacco plants containing Arabidopsis HPPD; experiment: Glasshouse trial, herbicidal damage on T1 tobacco; assay type: in vivo, Nicotiana tabacum; conditions: 7 DAT, 100 g AI/ha spray; Arabidopsis HPPD line 258, single T1 plants
Procedure: T0 Tobacco plants containing either the gene from Arabidopsis coding for HPPD or the gene FMP22e from Rhodococcus sp. (strain RHA1), isolate ro03041 coding for FMP22 HPPD, or the gene FMP23e from Rhodococcus sp. (strain RHA1), isolate ro02040 mentioned above (Example 3), were transferred to the glasshouse (28/20° C.), to develop further and produce seeds. Those seeds were harvested and put on soil (ED73 mixed with sand and osmocote Pro) to germinate in the glasshouse (28/20° C.). Three to four weeks later, plantlets were transferred to single pots containing the soil mentioned above. Two weeks later, plants of a size 4-6 cm diameter were sprayed with either • tembotrione at 100 gAl/ha prepared from a WP20 (wettable powder 20%) formulation supplemented with ammonium sulfate and methyl ester raps oil, or • isoxaflutole at 100 gAl/ha prepared from a WP20 formulation supplemented with ammonium sulfate and methyl ester raps oil, or • bicyclopyrone at 100 gAl/ha prepared from a WP20 formulation supplemented with ammonium sulfate and methyl ester raps oil, or • “blind formulation” made from a WP20 formulation without active ingredient (Al) supplemented with ammonium sulfate and methyl ester raps oil, and were then transferred to a growth chamber with adequate light conditions (20000 Lux).

[10] = system: transgenic soybean shoots, FMP22t-h; experiment: Soybean shoot greening on isoxaflutole selection; assay type: cell-based; conditions: isoxaflutole as selection marker
Description: (§2) Soybean transformation is achieved using methods well known in the art, such as the one described using the Agrobacterium tumefaciens mediated transformation soybean half-seed explants described by Paz et al. (2006, Plant cell Rep. 25:206). Transformants were identified using Isoxaflutole as selection marker. The appearance of green shoots was observed, and documented as an indicator of tolerance to the herbicide isoxaflutole.

[11] = system: transgenic soybean shoots, FMP23t-h; experiment: Soybean shoot greening on isoxaflutole selection; assay type: cell-based; conditions: isoxaflutole as selection marker
Description: as §2

wild-type soybean shoots = experiment: Soybean shoot greening on isoxaflutole selection; assay type: cell-based; conditions: same amount of isoxaflutole
Description: as §2

[12] = target: T1, Arabidopsis thaliana HPPD SEQ ID No. 10; experiment: HPPD activity in presence of HPPD inhibitors (pI50, % inhibition); assay type: biochemical; set-up: made in house; host or cells: E. coli K-12 BL21 (pQE30-AtHPPD)
[13] = SEQ ID No. 5, 5.0 × 10^−6 M inhibitor
[14] = SEQ ID No. 19, 5.0 × 10^−6 M inhibitor

SMILES: Cc1ccc(C(=O)COc2c(C(=O)c3ccc(Cl)c(C)c3Cl)c(C)nn2C)cc1 [Benzofenap]
- IC50 ((UniProt Q0SC92)): 3.98 µM
- percentage of inhibition compared to activity in absence of the inhibitor [1, 13]: 57%
- IC50 ((UniProt Q0SF39) [2]): 2.51 µM
- percentage of inhibition compared to activity in absence of the inhibitor [3, 14]: 72%

SMILES: COCCOCc1nc(C(F)(F)F)ccc1C(=O)C1=C(O)C2CCC(C2)C1=O (stereo not drawn) [Bicyclopyrone, 4-hydroxy-3-[[2-[(2-methoxyethoxy)methyl]-6-(trifluoromethyl)-3-pyridinyl]carbonyl]bicyclo[3.2.1]oct-3-en-2-one]
- IC50 ((UniProt Q0SC92)): 126 µM
- percentage of inhibition compared to activity in absence of the inhibitor [1, 13]: 0%
- IC50 ((UniProt Q0SF39) [2]): 63.1 µM
- percentage of inhibition compared to activity in absence of the inhibitor [3, 14]: 1%
- % of tolerant plant ([4]; FMP22e line 64): >50%
- Class I (number of plants) ([4]; FMP22e line 64): >100
- Class II (number of plants) ([4]; FMP22e line 64): 104
- % of tolerant plant ([4]; FMP22e line 65): 64%
- Class I (number of plants) ([4]; FMP22e line 65): 86
- Class II (number of plants) ([4]; FMP22e line 65): 48
- % of tolerant plant ([4]; FMP22e line 163): 50%
- Class I (number of plants) ([4]; FMP22e line 163): 45
- Class II (number of plants) ([4]; FMP22e line 163): 46
- % of tolerant plant [5]: 59%
- Class I (number of plants) ([5]; injury: 0-30%): 100
- Class II (number of plants) ([5]; injury: 31-100%): 70
- % of tolerant plant (Wild type tobacco plants): 0%
- Class I (number of plants) (Wild type tobacco plants; Class I: no to light injuries (injury: 0-30%)): 0
- Class II (number of plants) (Wild type tobacco plants; Class II: strong injuries (injury: 31-100%)): 12

SMILES: CS(=O)(=O)c1cc(C(F)(F)F)ccc1C(=O)C(C#N)C(=O)C1CC1 (stereo not drawn) [Diketonitrile, 2-cyano-3-cyclopropyl-1-(2-methylsulphonyl-4-trifluoromethylphenyl)-propane-1,3-dione]
- Ki ((UniProt Q0SF39) [6]): 3.6 µM
- IC50 ((UniProt Q0SC92)): 15.8 µM
- percentage of inhibition compared to activity in absence of the inhibitor [1, 13]: 27%
- IC50 ((UniProt Q0SF39) [2]): 25.1 µM
- percentage of inhibition compared to activity in absence of the inhibitor [3, 14]: 11%

SMILES: O=C(O)C(=O)Cc1ccc(O)cc1 [HPP, para-hydroxyphenylpyruvate]
- Km [7]: 35 µM
- Vmax [7]: 1.1 µM
- Km [8]: 6.3 µM
- Vmax [8]: 1.2 µM

SMILES: CS(=O)(=O)c1cc(C(F)(F)F)ccc1C(=O)c1cnoc1C1CC1 [Isoxaflutole, (5-cyclopropyl-4-isoxazolyl)[2-(methylsulfonyl)-4-(trifluoromethyl)phenyl]methanone]
- % injury [9]: 100%
- transgenic tested shoots showing normal greening [10]: 1.8%
- transgenic tested shoots showing normal greening [11]: 1.9%
- appearance of shoots treated with isoxaflutole (wild-type soybean shoots): entirely bleached

SMILES: CS(=O)(=O)c1ccc(C(=O)C2C(=O)CCCC2=O)c([N+](=O)[O-])c1 [Mesotrione, 2-[4-(methylsulfonyl)-2-nitrobenzoyl]-1,3-cyclohexanedione]
- percentage of inhibition compared to activity in absence of the inhibitor [1]: 54%
- percentage of inhibition compared to activity in absence of the inhibitor [3]: 67%

SMILES: Cc1nn(C)c(O)c1C(=O)c1ccc(C(F)(F)F)cc1S(C)(=O)=O [Pyrasulfotole]
- pI50 ([1]; SEQ ID No. 5, 2 mM HPP, 3 minutes incubation): 4.0
- percentage of inhibition compared to activity in absence of the inhibitor [1, 13]: 0%
- pI50 ([3]; SEQ ID No. 19, 2 mM HPP, 3 minutes incubation): 4.1
- percentage of inhibition compared to activity in absence of the inhibitor [3, 14]: 2%
- pI50 ([12]; 2 mM HPP, 3 minutes incubation): 5.4
- percentage of inhibition compared to activity in absence of the inhibitor ([12]; 5.0 × 10^−6 M inhibitor): 69%

SMILES: CS(=O)(=O)c1ccc(C(=O)C2C(=O)CCCC2=O)c(Cl)c1 [Sulcotrione, 2-[2-chloro-4-(methylsulfonyl)benzoyl]-1,3-cyclohexanedione]
- pI50 [1]: 5.3
- pI50 [3]: 5.5
- percentage of inhibition compared to activity in absence of the inhibitor [3]: 73%

SMILES: CS(=O)(=O)c1ccc(C(=O)C2C(=O)CCCC2=O)c(Cl)c1COCC1CCCO1 (stereo not drawn) [Tefuryltrione, 2-[2-chloro-4-(methylsulfonyl)-3-[[(tetrahydro-2-furanyl)methoxy]methyl]benzoyl]-1,3-cyclohexanedione]
- IC50 ((UniProt Q0SC92)): 6.31 µM
- percentage of inhibition compared to activity in absence of the inhibitor [1, 13]: 43%
- IC50 ((UniProt Q0SF39) [2]): 2.51 µM
- percentage of inhibition compared to activity in absence of the inhibitor [3, 14]: 65%
